Data: publication PMC3261883, “Structure of S. aureus HPPK and the Discovery of a New Substrate Site Inhibitor” (PLoS ONE, 2012)
Converted amounts (≈) assume the structure as drawn. “And” between values parts separate entries of the source, which are not always exact repeats. Identical values can stand only once. Like-named read-outs stand apart in the source and are kept apart here.

Key:
[1] = target: T1, SaHPPK (Staphylococcus aureus, UniProt A0A0H3JXR3); assay: KinaseGlo luminescent biochemical assay of HPPK activity
T1 sequence (A0A0H3JXR3 entry or part of it): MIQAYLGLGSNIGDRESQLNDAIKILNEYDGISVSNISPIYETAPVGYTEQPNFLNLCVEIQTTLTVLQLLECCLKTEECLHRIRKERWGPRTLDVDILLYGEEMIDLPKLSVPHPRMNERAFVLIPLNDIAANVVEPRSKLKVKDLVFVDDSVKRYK

[2] = set-up: method as in PMID 17511860; details: in vivo mouse model; cited from earlier work
[3] = Solubility estimated from ITC experiments; assay type: physicochemical; details: ITC buffer, estimated assuming 1:1 binding stoichiometry
[4] = test system: SaHPPK; assay: Differential scanning fluorimetry (DSF) assay for ligand binding; set-up: species or system Staphylococcus aureus; details: for increase in unfolding temperature (Tm): saturating ligand
Protocol: A 96-well plate containing solutions of 2–5 µM SaHPPK, 10× Sypro orange dye and 500 µM of test compound in buffer (50 mM HEPES (pH 8.0), 1% sorbitol, 2.0 mM DTT, 10 mM MgCl2) was heated from […] at a rate of 1.0 K min^−1. The fluorescence intensity was measured with excitation/emission wavelengths of 583/610 nm. Tm and ΔTm values were determined from the melting curves obtained.

[5] = test system: B. anthracis DHPS; details: co-crystallisation; cited from earlier work
[6] = target: T1, SaHPPK; assay: biochemical; assay type: binding
[7] = target: T1, SaHPPK; assay: Surface plasmon resonance (SPR) with biotinylated SaHPPK on NeutrAvidin chip; assay type: binding
[8] = target: T1, SaHPPK; assay type: binding
[9] = test system: E. coli; assay: E. coli cell-based growth inhibition assays; details: data not shown
[10] = target: EcHPPK; details: cited from earlier work
[11] = test system: E. coli HPPK; details: read-out: Km for the E. coli enzyme; different assays; cited from earlier work
[12] = ITC, 298 K, in the presence of 1 mM AMPCPP
[13] = ITC, 298 K, ligand alone, read-out: K d ITC
[14] = SPR steady-state, 293 K, ligand alone, read-out: K d SPR
[15] = in the absence of Mg2+, data not shown
[16] = SPR, 1:1 kinetic interaction model
[17] = fluorescence-based methods, in the presence of Mg2+, read-out: binding affinity (K d) of EcHPPK
[18] = read-out: dissociation constant for EcHPPK

Nc1nc2nc(S)[nH]c2c(=O)[nH]1 [8-mercaptoguanine]
IC50 ([1]; HMDP 0.3 µM, ATP 0.2 µM, read-out: IC50 for inhibition of SaHPPK): 41 µM and ~41 µM
antiviral activity and toxicity [2]: Antiviral activity,without significant toxicity
solubility [3]: ~300 µM (≈ 55 µg/mL)
increase in Tm compared to apo ([4]; 500 µM ligand, 5 µM enzyme): 3.4 °C
binding and inhibition of B. anthracis DHPS [5]: bind to, but not inhibit
N (binding stoichiometry) [6, 12]: 0.96±0.09
TΔS [6, 12]: -10.4 ± 1.5 kcal/mol
ΔG [6, 12]: -6.8 ± 0.1 kcal/mol
ΔH [6, 12]: -17.2 ± 1.4 kcal/mol
Kd ([6]; ITC, 298 K, in the presence of 1 mM AMPCPP, read-out: K d ITC): 11.3 ± 2.3 µM
N (binding stoichiometry) ([6]; ITC, 298 K, ligand alone): 1.00±0.06
TΔS ([6]; ITC, 298 K, ligand alone): -12.9 ± 3.5 kcal/mol
ΔG ([6]; ITC, 298 K, ligand alone): -6.7 ± 0.2 kcal/mol
ΔH ([6]; ITC, 298 K, ligand alone): -19.6 ± 3.4 kcal/mol
Kd [6, 13]: 12.8 ± 3.4 µM
ligand efficiency ([6]; K d ∼13 µM over 12 heavy atoms): 2.3 kJ/heavy atom
Kd ([6]; absence of cofactor, read-out: equilibrium dissociation constant Kd, summary value from ITC and SPR): ~13 µM and ~12 µM
times more tightly bound than HMDP [7]: ~10 times
Kd ([7]; SPR steady-state, 293 K, in the presence of 5 mM ATP, read-out: K d SPR): 8.1 ± 1.6 µM
Kd [7, 14]: 10.8 ± 0.4 µM
K d indicated by NMR exchange regime [8]: low µM range
growth inhibition [9]: did not observe growth inhibition

Nc1ncnc2c1ncn2[C@@H]1O[C@H](COP(=O)(O)OP(=O)(O)O)[C@@H](O)[C@H]1O [ADP]
Kd [7, 14]: 760 ± 16 µM

Nc1ncnc2c1ncn2C1OC(COP(=O)(O)CP(=O)(O)OP(=O)(O)O)C(O)C1O (stereo not drawn) [AMPCPP, α,β-methylene adenosine 5′-triphosphate]
increase in unfolding temperature (Tm) [4]: 11 °C
fold tighter binding than ATP ([6]; ITC affinity ratio): approximately 10 fold
N (binding stoichiometry) ([6]; ITC, 298 K, ligand alone): 1.06±0.12
TΔS ([6]; ITC, 298 K, ligand alone): 1.3 ± 1.0 kcal/mol
ΔG ([6]; ITC, 298 K, ligand alone): -7.5 ± 0.2 kcal/mol
ΔH ([6]; ITC, 298 K, ligand alone): -6.3 ± 1.0 kcal/mol
Kd [6, 13]: 3.1 ± 1.2 µM
binding by ITC [6, 15]: no significant binding
Kd [7, 14]: 7.7 ± 0.4 µM
k a [7, 16]: 8.8±1.3×10^4 M^−1 s^−1
k d [7, 16]: 0.5 ± 0.1 s⁻¹
Kd ([7]; SPR, from k d/k a ratio, read-out: K d from kinetic interaction model): 5.4 ± 0.3 µM
Kd [10, 17]: 0.08 to 0.45 µM
Kd [10, 18]: 0.45 µM

Nc1ncnc2c1ncn2[C@@H]1O[C@H](COP(=O)(O)O)[C@@H](O)[C@H]1O [AMP]
Kd [7, 14]: 4900 ± 1100 µM

Nc1ncnc2c1ncn2[C@@H]1O[C@H](COP(=O)(O)OP(=O)(O)OP(=O)(O)O)[C@@H](O)[C@H]1O [ATP]
Km ([1]; KinaseGlo assay, read-out: Km app): 10.8 ± 2.5 µM
increase in unfolding temperature (Tm) [4]: 6 °C
N (binding stoichiometry) ([6]; ITC, 298 K, ligand alone): 0.98±0.11
TΔS ([6]; ITC, 298 K, ligand alone): -0.3 ± 0.5 kcal/mol
ΔG ([6]; ITC, 298 K, ligand alone): -6.2 ± 0.1 kcal/mol
ΔH ([6]; ITC, 298 K, ligand alone): -6.5 ± 0.4 kcal/mol
Kd [6, 13]: 31 ± 4.5 µM
binding by ITC [6, 15]: no significant binding
Kd [7, 14]: ~45 µM and 45 µM
Kd [10, 17]: 2.6 to 4.5 µM
Kd [10, 18]: 2.6 µM

Nc1nc2c(c(=O)[nH]1)N=C(CO)CN2 [HMDP, 6-hydroxymethyl-7,8-dihydropterin]
Km [11]: 0.7 to 1.6 µM
N (binding stoichiometry) [6, 12]: 1.23±0.15
TΔS [6, 12]: -3.1 ± 0.9 kcal/mol
ΔG [6, 12]: -7.4 ± 0.2 kcal/mol
ΔH [6, 12]: -10.5 ± 1.0 kcal/mol
Kd ([6]; K d ITC, ITC, 298 K, in the presence of 1 mM AMPCPP): ~4 µM and 4 µM
binding by ITC ([6]; in the presence of the inhibitor 8-mercaptoguanine): could not be detected
Kd ([7]; K d SPR, SPR steady-state, 293 K, in the presence of AMPCPP): 3.6 ± 0.3 µM
Kd ([7]; K d SPR, SPR steady-state, 293 K, ligand alone): ~100 µM and 100 µM
Kd ([10]; in the presence of Mg2+ and AMPCPP, read-out: binding affinity of EcHPPK): 0.036 to 0.17 µM

Nc1nc2nc[nH]c2c(=O)[nH]1 [guanine]
affinity by SPR ([7]; data not shown): undetectable

Mg-GTP
affinity of EcHPPK, fold less than for Mg-ATP [10]: 260 fold
